Legend:
BV173 [1] = experiment: Cell proliferation inhibition, modified MTT assay (Cell Counting Kit-8); format: cell-based
Procedure: (§1) The proliferation inhibitory action in leukemia cell lines was evaluated using a modified dimethyl-thiazole-diphenyl-tetrazolium (MTT) assay as follows.
(§2) The hepatocyte line and leukemia cell lines (K562, BV173, Ba/F3 p190, Ba/F3 p210, MYL-R, K562-IMR, and KBM5-STI) were used in this example. The FA-HP-β-CyD synthesized in Example 1 was used.
(§3) The cell viability was evaluated using the trypan blue dye exclusion method. Cell proliferation was evaluated using a Cell Counting Kit-8 (Dojindo, Japan), which is an MTT assay. 2×10^4 of each cell was seeded with 100 μL RPMI1640 medium (Sigma-Aldrich, USA) per well to a flatbottom 96-well plate (Greiner Labortechnik, Hamburg, Germany), and incubation for 72 hours was carried out with exposure to HP-β-CyD and FA-HP-β-CyD at different concentrations (0 mM (control: CT), 0.05 mM, 0.1 mM, 0.25 mM, 0.5 mM, and 1 mM).

Ba/F3 P190 = experiment: as above; format: cell-based
Procedure: as §1, §2, §3

Ba/F3 P210 = experiment: as above; format: cell-based; details: Ba/F3 P210, incubation for 72 hours, average±SD of 3 independent experiments
Procedure: as §1, §2, §3

K562-IMR = experiment: as above; format: cell-based; details: incubation for 72 hours, average±SD of 3 independent experiments
Procedure: as §1, §2, §3

K562 [2] = experiment: as above; format: cell-based
Procedure: as §1, §2, §3

MYL-R = experiment: as above; format: cell-based; details: incubation for 72 hours, average±SD of 3 independent experiments
Procedure: as §1, §2, §3

A549 = experiment: Proliferation inhibitory action on low folate receptor-expressing cells (MTT assay); format: cell-based, human; details: A549, 2.5-10 mM, 72 hours (FIG. 3)
Procedure: The proliferation inhibitory action on A549, a low folate receptor-expressing cell, was evaluated as follows.
A human non-small cell lung cancer cell line (A549) was used in this example. The FA-HP-β-CyD synthesized in Example 1 was used.
For cell proliferation, 2×10^4 cells of the […] were seeded with 100 μL DMEM medium (Sigma-Aldrich, USA) per well to a flatbottom 96-well plate (Greiner Labortechnik, Hamburg, Germany), and incubation for 72 hours was carried out with exposure to HP-β-CyD and FA-HP-β-CyD at different concentrations (0 mM (control: CT), 2.5 mM, 5 mM, 7.5 mM, and 10 mM). Evaluation was then carried out using a dimethyl-thiazole-diphenyl-tetrazolium (MTT) assay (Nacalai Tesque, Japan).

BV173 [3] = experiment: Apoptosis, Annexin V/propidium iodide staining; format: cell-based; details: BV173, 0.5, 1 and 1.5 mM, 48 hours (FIG. 5)
Procedure: (§4) The apoptosis of cells exposed to FA-HP-β-CyD was evaluated using Annexin V/propidium iodide (PI) staining as follows.
(§5) Leukemia cell lines (K562 and BV173) were used in this example. The FA-HP-β-CyD synthesized in Example 1 was used.
(§6) The apoptosis assay was performed by staining the cells with propidium iodide (PI) and Annexin V (BD Biosciences). The cells were cultured at a cell density of 4×10^5 cells/well on a 6-well plate and were incubated for 48 hours with FA-HP-β-CyD at different concentrations (0 mM (control: CT), 0.5 mM, 1 mM, and 1.5 mM). The cells were then stained with propidium iodide (PI) and Annexin V-APC (BD Biosciences) and analysis was performed using an FACSVerse flow cytometry system (BD Biosciences).

K562 [4] = experiment: Apoptosis, Annexin V/propidium iodide staining; format: cell-based; details: K562, 0.5, 1 and 1.5 mM, 48 hours (FIG. 5)
Procedure: as §4, §5, §6

BV173 [5] = experiment: Cellular uptake of TRITC-labelled CyD, confocal microscopy; format: cell-based; details: confocal microscopy (FIG. 6)
Procedure: The cellular uptake of FA-HP-β-CyD was evaluated as follows.
A leukemia cell line (BV173) was used in this example. The FA-HP-β-CyD synthesized in Example 1 was used.
10 mg HP-β-CyD or FA-HP-β-CyD and 1 mg of TRITC were dissolved in 400 μL of dimethyl sulfoxide (DMSO) with stirring for 24 hours and the solution was then gradually poured into acetone. A precipitate was obtained and was washed with water. This was freeze-dried to prepare TRITC-HP-β-CyD and TRITC-FA-HP-β-CyD.
The cells were then cultured at a cell density of 4×10e5 per well on a 6-well plate and were incubated with […], TRITC-HP-β-CyD, FA-HP-β-CyD, or HP-βCyD at different concentrations. A Zeiss LSM880 confocal microscope was used to observe the cells. Imaris (Zeiss) fluorescent image analysis software was used for analysis.
The Control refers to incubation at the same time as the other exposure groups, but without exposure to an agent. Cell localization was stained by DAPI and the cell membrane was stained with PlasMen Bright Green, and the cellular uptake of TRITC-FA-HP-β-CyD was evaluated using confocal microscopy.

BV173 [6] = experiment: Effect of autophagy inhibition on the cell proliferation inhibitory effect; format: cell-based; details: 5 mM FA-HP-β-CyD or 15 mM HP-β-CyD, chloroquine, bafilomycin A1 or LY294002 (FIG. 8)
Procedure: (§7) The effect of autophagy inhibition on the cell proliferation inhibitory effect was evaluated as follows.
as §5
(§8) 2×10^5 of each cell with 100 μL RPMI1640 medium (Sigma-Aldrich, USA) was seeded per well to a flatbottom 96-well plate (Greiner Labortechnik, Hamburg, Germany), and treatment was carried out for 2 hours at 37° C. with 5 mM FA-HP-β-CyD and 15 mM HP-β-CyD. Pretreatment was then carried out for 24 hours with the autophagy inhibitors chloroquine (20 μM) (FUJIFILM Wako Pure Chemical Corporation), bafilomycin A1 (1 nM) (Funakoshi), or LY294002 (50 μM) (FUJIFILM Wako Pure Chemical Corporation). Cell proliferation was then evaluated using a Cell Counting Kit-8 (Dojindo, Japan), which is a modified dimethyl-thiazole-diphenyl-tetrazolium (MTT) assay.
(§9) Here, the “CT” in FIG. 8 was evaluated as follows. Thus, 2×10^5 of each cell with 100 μL RPMI1640 medium was seeded per well to a flatbottom 96-well plate and culture was carried out for 2 hours+24 hours as in the exposure groups, but without exposure to the agent or autophagy inhibitor, and this was used as the CT. This CT was compared with the exposure groups.
(§10) Significant difference was determined as follows. That is, the data were analyzed using a two-sided Student's t-test without a comparison table. A value of P<0.05 was considered to indicate a significant difference.

K562 [7] = experiment: as above; format: cell-based; details: 5 mM FA-HP-β-CyD or 15 mM HP-β-CyD, chloroquine, bafilomycin A1 or LY294002 (FIG. 8)
Procedure: as §7, §5, §8, §9, §10

folic acid-appended hydroxypropyl-β-cyclodextrin [FA-HP-β-CyD]
cell proliferation (BV173 [1]; BV173, 0.05-1 mM, 72 hours (FIG. 2)): inhibited in a dose-dependent manner
IC50 (BV173 [1]; BV173, incubation for 72 hours, average±SD of 3 independent experiments): 170 ± 64 µM
IC50 (Ba/F3 P190; Ba/F3 P190, incubation for 72 hours, average±SD of 3 independent experiments): 910 ± 160 µM
cell proliferation (Ba/F3 P190; Ba/F3 p190, 0.05-1 mM, 72 hours (FIG. 2)): inhibited in a dose-dependent manner
IC50 (Ba/F3 P210): 960 ± 17 µM
IC50 (K562-IMR): 700 ± 55 µM
cell proliferation (K562 [2]; K562, 0.05-1 mM, 72 hours (FIG. 2)): inhibited in a dose-dependent manner
IC50 (K562 [2]; K562, incubation for 72 hours, average±SD of 3 independent experiments): 690 ± 190 µM
IC50 (MYL-R): 930 ± 110 µM
cytotoxic / antitumor activity on A549 low folate receptor-expressing cells (A549): does not exhibit an antitumor activity
apoptosis induction (BV173 [3]): induce apoptosis in a concentration dependent manner
apoptosis induction (K562 [4]): induce apoptosis in a concentration dependent manner
cellular uptake (BV173 [5]): incorporated in large amounts into the cell
cell proliferation inhibitory capability on addition of an autophagy inhibitor (BV173 [6]): reduced by the addition of an autophagy inhibitor
cell proliferation inhibitory capability on addition of an autophagy inhibitor (K562 [7]): reduced by the addition of an autophagy inhibitor

From patent US20250213603A1, “PHARMACEUTICAL COMPOSITION FOR TREATING CANCER” (SAGA UNIVERSITY, priority 2021, published 2025)
